2 compounds from ChEMBL document CHEMBL1201862, “PubChem BioAssay data set” (2004) can be followed below.

The target in assay [1] is Glyceraldehyde-3-phosphate dehydrogenase (Homo sapiens, UniProt P04406).
Assay [2] addresses T1, Bcl-2-related protein A1 (Mus musculus, UniProt Q07440).
T1 sequence (Q07440 whole entry): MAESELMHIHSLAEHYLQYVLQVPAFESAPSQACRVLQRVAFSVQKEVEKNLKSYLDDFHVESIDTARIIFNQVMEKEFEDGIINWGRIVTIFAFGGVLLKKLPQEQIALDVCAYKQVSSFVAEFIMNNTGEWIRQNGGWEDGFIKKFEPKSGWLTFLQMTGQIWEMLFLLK
The assay is described as follows: small-molecule antagonists of Bfl-1/BH3 interaction – biochemical, TR-FRET, mouse Bfl-1, confirmation (AID 621).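 Note: TR-FRET binding of GST-Bfl-1 to FITC-labelled Bid peptide via terbium antibody.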 On the technique in general: In TR-FRET formats the signal depends on donor and acceptor labels being close together.

For assay [3], the target named is T1, Bcl-2-related protein A1. The assay is described as follows: Bfl-1 binding inhibitors, SAR follow-up, biochemical, fluorescence polarization (AID 1070).
In assay [4] the target is T2, Nucleotide-binding oligomerization domain-containing protein 1 (Homo sapiens, UniProt Q9Y239).
T2 sequence (Q9Y239 whole entry): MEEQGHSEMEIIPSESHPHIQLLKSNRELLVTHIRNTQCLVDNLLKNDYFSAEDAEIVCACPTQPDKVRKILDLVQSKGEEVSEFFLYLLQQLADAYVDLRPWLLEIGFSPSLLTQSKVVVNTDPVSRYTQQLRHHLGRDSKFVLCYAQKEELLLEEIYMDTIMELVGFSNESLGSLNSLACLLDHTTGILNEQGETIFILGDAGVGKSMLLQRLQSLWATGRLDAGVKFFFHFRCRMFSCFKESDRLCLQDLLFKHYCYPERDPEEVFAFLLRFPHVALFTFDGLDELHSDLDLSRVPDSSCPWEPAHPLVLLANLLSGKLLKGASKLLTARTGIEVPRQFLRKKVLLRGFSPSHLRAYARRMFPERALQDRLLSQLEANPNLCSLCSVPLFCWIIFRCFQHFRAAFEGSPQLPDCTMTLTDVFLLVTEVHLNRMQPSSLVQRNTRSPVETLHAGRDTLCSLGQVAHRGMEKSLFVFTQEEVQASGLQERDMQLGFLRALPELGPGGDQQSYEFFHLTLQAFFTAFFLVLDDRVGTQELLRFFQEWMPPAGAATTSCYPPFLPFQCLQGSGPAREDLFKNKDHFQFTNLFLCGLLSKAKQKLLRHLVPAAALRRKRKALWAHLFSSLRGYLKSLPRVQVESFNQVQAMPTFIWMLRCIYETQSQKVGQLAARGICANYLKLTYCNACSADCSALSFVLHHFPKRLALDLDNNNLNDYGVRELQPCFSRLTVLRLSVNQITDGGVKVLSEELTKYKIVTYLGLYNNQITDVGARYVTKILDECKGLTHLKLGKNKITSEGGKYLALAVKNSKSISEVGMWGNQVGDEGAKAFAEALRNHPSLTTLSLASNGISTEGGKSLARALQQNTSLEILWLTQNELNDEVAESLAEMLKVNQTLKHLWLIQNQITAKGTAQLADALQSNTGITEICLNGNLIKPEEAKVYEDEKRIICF
The assay is described as follows: SAR analysis of compounds that inhibit NOD1 - Set 3. [Related pubchem assays (depositor defined):AID1566, AID1575, AID1578, AID1849, AID1852, AID2333, AID2335, AID2466]. Type of assay: functional.

The next assay has as its target Tumor necrosis factor (Homo sapiens, UniProt P01375). Kind of assay: analog potency on TNFa NF-kB signaling – cell-based, set 3, SAR follow-up (AID 2801). Type of assay: functional.
A further assay relates to HEK293. The assay is described as follows: SAR analysis of compounds that are cytotoxic to HEK293 - Set 3. [Related pubchem assays (depositor defined):AID1575, AID1578, AID1848, AID1849, AID2001, AID2333, AID2334, AID2335, AID2337, AID2469]. It counts as functional, cell-based. The note with it: Homo sapiens.
Assay [5] has as its target Nucleotide-binding oligomerization domain-containing protein 2 (Homo sapiens, UniProt Q9HC29). Kind of assay: inhibition of MDP-driven NOD2 NF-kB reporter – cell-based, set 3, SAR follow-up (AID 2799). It counts as functional.
Assay [6] is described as follows: NIH-3T3 fibroblast cytotoxicity, dose response, cytotoxicity control, cell-based, fluorescence, Alamar Blue, secondary assay (AID 2327).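 Note: NIH-3T3 mouse fibroblasts cultured with fluconazole at 8 µg/mL.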 Type of assay: functional.
Assay [7] has as its system Streptococcus sp. 'group A'. Kind of assay: Streptococcus pyogenes SK(-)GAS viability under kanamycin – luminescence, BacTiterGlo, confirmation, counter-screen for streptokinase expression inhibitor project, dose response (AID 1900). It counts as functional, organism-based. (In general: The purpose of a counterscreen is to sort out artefacts and off-target activity.)
Assay [8] in a line: fluconazole-exposed Candida albicans growth modulators – fluorescence, retest, confirmation (AID 2467). Type of assay: functional, cell-based.
The target in assay [9] is T3, Serine/threonine-protein phosphatase (Candida dubliniensis (strain CD36 / CBS 7987 / NCPF 3949 / NRRLY-17841) (Yeast), UniProt B9W6M3).
T3 sequence (B9W6M3 whole entry): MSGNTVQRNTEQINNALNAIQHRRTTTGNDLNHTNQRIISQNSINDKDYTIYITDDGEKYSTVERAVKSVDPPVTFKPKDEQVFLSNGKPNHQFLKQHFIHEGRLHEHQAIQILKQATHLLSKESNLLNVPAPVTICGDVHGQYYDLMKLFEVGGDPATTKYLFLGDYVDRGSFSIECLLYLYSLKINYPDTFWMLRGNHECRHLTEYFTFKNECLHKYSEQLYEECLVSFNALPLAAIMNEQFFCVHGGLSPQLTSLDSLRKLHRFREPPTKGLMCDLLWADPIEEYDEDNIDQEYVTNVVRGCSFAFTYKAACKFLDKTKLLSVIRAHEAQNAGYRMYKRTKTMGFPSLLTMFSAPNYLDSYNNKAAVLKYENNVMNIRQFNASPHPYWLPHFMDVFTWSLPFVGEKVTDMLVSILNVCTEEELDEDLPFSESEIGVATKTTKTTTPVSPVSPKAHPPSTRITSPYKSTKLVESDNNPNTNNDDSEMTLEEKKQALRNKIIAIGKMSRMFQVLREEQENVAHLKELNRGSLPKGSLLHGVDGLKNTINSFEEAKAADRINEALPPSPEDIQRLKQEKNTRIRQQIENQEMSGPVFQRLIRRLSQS
The assay is described as follows: blockers of CaCl2-induced CDRE-lacZ signaling – S. cerevisiae, luminescence, secondary, dose response (AID 2388).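 Note: yeast reporter cells carrying a calcineurin-responsive lacZ construct stimulated with calcium chloride; luminescent beta-galactosidase reporter signal in whole cells rather than isolated phosphatase activity; potency for inhibition where a drop in reporter signal means calcineurin blockade.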 Type of assay: functional, cell-based.

The subject of a further assay is Streptococcus. Kind of assay: GAS UMAA2166 growth inhibition – luminescence, BacTiterGlo, counter-screen for streptokinase expression inhibitor project, dose response (AID 1915).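 Note: potency for reduction of bacterial viability or growth.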 It counts as functional, organism-based.
The target of a further assay is Exodeoxyribonuclease V (Escherichia coli (strain K12), UniProt P04993+P07648+P08394). Kind of assay: RecBCD inhibition via phage-restricted bacterial growth – absorbance, V66 E. coli, mutant T4 phage, counter-screen for AddAB inhibitor project, dose response (AID 492957). It counts as functional, cell-based, Escherichia coli str. K-12 substr. MG1655.
Assay [10] in a line: Counterscreen for AddAB inhibitors: absorbance-based bacterial cell-based high throughput dose response assay for inhibitors of bacterial viability. [Related pubchem assays (depositor defined):AID435030, AID449728, AID449731, AID488942, AID488955, AID488956]. It counts as functional.
For assay [11], the target named is T4, High affinity choline transporter 1 (Homo sapiens, UniProt Q9GZV3).
T4 sequence (Q9GZV3 whole entry): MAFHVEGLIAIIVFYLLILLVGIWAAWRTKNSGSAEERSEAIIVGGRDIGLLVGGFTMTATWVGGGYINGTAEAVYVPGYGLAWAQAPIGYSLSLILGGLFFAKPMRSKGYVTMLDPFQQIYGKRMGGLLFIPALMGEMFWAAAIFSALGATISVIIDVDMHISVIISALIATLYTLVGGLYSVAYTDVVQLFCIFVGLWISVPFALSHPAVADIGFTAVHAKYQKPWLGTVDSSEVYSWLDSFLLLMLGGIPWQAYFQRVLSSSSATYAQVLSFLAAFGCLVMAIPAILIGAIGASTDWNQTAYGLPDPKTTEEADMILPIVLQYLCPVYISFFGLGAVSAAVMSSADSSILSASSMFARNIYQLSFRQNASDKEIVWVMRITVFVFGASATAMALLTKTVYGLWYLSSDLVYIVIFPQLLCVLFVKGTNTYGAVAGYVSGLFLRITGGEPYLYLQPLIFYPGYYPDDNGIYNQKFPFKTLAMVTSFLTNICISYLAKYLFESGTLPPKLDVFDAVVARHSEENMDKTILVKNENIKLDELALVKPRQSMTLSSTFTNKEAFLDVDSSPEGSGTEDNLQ
The assay is described as follows: human choline transporter blockers, potency – cell-based, 5-point CRC, membrane potential dye, dose response (AID 504840). It counts as functional.

In assay [12] the target is ATP-dependent molecular chaperone HSP82 (Candida albicans (strain WO-1) (Yeast), UniProt C4YTQ8). The assay is described as follows: steroid-induced GRE reporter decrease in yeast – S. cerevisiae, luminescence, Hsp90 inhibitor project, dose response (AID 2400).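 Note: beta-galactosidase luminescence from glucocorticoid response element reporter as proxy for Hsp90 function; inhibitor potency where signal loss means Hsp90 inhibition.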 It counts as functional, cell-based.
Assay [13] is described as follows: mammalian cell viability loss – Alamar Blue, dry powder, cytotoxicity control for antifungal single agent project, dose response (AID 602188). Type of assay: functional, cell-based. A general note: Alamar Blue is a resazurin reagent that responds to reducing activity.

Calls of active or inactive are those of the source.

Nucleotide-binding oligomerization domain-containing protein 2, sequence (Q9HC29 whole entry, the tested form may be a part): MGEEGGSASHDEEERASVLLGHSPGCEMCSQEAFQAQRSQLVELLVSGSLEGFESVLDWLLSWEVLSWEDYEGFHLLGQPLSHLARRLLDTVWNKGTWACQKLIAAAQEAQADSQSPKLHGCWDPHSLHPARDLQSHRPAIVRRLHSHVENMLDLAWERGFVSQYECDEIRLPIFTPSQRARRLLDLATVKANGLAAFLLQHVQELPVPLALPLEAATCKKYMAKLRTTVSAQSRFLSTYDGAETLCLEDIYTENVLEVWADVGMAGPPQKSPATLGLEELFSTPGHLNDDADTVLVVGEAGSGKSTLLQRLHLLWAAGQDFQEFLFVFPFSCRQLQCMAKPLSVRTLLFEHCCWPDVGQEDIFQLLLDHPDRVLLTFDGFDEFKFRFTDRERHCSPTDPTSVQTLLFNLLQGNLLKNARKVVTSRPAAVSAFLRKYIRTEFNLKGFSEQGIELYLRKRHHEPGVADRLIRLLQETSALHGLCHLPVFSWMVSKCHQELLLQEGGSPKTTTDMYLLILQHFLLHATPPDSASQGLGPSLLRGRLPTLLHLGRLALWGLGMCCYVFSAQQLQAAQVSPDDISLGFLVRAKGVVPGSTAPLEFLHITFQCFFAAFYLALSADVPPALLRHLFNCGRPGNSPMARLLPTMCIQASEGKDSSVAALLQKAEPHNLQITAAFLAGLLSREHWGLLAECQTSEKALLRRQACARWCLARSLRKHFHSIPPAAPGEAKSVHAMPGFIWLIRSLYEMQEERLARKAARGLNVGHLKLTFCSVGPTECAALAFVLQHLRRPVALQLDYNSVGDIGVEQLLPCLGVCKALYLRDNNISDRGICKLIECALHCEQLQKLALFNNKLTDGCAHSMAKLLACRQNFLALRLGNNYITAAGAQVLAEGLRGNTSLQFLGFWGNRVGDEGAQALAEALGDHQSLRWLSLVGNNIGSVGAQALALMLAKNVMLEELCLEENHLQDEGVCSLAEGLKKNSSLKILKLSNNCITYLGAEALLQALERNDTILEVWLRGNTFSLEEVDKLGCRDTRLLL
Exodeoxyribonuclease V, sequence (P04993 whole entry): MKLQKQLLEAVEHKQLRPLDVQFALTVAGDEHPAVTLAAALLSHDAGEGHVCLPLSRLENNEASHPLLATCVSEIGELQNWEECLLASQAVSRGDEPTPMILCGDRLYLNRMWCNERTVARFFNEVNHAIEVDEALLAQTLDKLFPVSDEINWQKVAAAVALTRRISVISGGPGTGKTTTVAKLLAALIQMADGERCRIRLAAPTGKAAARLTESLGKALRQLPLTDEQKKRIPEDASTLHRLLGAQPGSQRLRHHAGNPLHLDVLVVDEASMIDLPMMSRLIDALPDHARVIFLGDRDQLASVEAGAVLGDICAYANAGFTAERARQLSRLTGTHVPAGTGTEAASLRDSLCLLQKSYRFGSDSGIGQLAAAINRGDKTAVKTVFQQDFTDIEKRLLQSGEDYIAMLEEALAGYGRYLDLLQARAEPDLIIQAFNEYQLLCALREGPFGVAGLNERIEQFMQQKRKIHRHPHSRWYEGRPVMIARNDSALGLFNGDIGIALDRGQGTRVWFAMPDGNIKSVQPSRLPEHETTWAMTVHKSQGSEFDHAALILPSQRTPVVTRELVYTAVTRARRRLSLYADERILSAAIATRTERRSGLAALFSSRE
Exodeoxyribonuclease V, sequence (P07648 whole entry): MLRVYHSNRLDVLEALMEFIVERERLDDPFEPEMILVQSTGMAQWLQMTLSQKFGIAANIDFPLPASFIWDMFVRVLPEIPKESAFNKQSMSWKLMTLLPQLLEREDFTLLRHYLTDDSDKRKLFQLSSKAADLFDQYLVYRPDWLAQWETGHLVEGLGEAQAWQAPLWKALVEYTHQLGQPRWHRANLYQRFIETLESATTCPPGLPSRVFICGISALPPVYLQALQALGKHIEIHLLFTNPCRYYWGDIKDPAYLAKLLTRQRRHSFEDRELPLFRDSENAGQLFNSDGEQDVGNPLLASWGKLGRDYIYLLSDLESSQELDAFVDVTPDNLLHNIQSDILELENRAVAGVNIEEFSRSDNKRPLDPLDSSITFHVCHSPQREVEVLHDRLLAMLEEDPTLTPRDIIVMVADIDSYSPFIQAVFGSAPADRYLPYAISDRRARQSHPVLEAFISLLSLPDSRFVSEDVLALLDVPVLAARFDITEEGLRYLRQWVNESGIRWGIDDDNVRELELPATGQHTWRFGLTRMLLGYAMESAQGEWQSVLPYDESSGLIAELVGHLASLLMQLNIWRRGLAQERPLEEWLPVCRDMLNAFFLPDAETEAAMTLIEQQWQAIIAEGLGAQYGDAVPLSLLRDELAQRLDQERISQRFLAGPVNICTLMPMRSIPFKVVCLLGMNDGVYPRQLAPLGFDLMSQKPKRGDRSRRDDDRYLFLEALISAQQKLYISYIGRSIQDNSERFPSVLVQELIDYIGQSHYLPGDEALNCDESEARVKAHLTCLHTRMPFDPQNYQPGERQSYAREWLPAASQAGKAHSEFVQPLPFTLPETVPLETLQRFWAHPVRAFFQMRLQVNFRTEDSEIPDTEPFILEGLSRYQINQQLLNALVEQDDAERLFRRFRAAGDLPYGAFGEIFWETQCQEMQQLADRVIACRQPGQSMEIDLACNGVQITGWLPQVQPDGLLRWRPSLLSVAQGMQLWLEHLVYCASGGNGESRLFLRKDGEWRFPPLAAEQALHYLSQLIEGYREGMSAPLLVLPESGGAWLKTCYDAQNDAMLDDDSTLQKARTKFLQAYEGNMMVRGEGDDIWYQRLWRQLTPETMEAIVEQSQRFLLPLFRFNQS
Exodeoxyribonuclease V, sequence (P08394 whole entry): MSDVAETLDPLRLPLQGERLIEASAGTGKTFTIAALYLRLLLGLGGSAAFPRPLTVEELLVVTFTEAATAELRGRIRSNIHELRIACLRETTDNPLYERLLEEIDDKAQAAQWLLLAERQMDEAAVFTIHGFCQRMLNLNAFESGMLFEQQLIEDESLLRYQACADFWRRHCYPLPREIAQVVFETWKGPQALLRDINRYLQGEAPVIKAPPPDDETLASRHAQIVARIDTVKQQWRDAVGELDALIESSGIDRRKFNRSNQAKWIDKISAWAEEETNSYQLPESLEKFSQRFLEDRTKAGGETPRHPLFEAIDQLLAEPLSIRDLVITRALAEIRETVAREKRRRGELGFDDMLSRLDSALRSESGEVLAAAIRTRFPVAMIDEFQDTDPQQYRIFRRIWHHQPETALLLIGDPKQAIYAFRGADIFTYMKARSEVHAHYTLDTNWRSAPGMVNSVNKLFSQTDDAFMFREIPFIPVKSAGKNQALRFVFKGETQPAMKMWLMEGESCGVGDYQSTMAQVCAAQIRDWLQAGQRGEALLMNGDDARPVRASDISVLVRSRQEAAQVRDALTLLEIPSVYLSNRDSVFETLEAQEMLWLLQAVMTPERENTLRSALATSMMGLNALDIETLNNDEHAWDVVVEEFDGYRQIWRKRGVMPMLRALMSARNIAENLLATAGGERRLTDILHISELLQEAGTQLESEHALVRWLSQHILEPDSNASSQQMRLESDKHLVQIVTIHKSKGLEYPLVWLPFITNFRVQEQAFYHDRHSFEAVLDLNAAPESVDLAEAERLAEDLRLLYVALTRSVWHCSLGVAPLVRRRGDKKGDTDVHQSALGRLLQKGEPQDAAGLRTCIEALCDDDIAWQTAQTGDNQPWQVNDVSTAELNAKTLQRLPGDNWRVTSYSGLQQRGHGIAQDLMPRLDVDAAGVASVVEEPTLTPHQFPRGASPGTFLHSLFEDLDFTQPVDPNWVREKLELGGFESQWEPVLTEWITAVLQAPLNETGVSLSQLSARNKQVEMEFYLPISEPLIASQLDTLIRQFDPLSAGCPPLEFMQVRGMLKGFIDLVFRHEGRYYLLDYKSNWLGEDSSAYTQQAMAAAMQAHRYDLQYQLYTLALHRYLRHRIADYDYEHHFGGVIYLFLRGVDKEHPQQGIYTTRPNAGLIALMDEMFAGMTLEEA
Glyceraldehyde-3-phosphate dehydrogenase, sequence (P04406 whole entry): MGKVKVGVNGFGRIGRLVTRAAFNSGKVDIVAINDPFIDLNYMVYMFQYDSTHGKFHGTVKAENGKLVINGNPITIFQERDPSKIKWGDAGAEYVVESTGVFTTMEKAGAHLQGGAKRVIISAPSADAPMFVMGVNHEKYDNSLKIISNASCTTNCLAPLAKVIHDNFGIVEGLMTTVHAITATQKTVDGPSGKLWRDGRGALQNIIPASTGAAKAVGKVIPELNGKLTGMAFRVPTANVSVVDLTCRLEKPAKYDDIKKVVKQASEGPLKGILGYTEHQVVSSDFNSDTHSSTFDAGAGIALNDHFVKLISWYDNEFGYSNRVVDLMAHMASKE
Tumor necrosis factor, sequence (P01375 whole entry): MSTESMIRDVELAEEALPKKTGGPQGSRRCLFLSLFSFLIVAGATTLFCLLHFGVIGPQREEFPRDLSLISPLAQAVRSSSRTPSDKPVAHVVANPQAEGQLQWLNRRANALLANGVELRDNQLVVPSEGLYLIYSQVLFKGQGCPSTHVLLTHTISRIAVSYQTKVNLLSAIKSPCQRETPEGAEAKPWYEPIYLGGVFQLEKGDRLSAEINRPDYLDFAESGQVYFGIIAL

On to `Nc1cc(-c2ccccc2)nn1S(=O)(=O)c1c(F)c(F)c(F)c(F)c1F`, for which the IC50 was > 100 µM (not active) in [1]; 5.83 µM (active) on Bcl-2-related protein A1 [2]; > 100 µM (not active) at Bcl-2-related protein A1 [3]; > 20 µM (inactive) in [4]; > 20 µM (inactive) at Tumor necrosis factor; > 20 µM (inactive) in the assay on HEK293. For the same compound, the IC50 in [5] was > 20 µM (inactive).

Regarding `Cc1ccc(-c2nc3c(Cl)cc(Cl)cc3c(=O)n2O)cc1`, the EC50 was 31 µM (inconclusive) in [6]; 2.19 µM (active) in [7]; 0.891 µM (active) in assay [8]; > 180 µM (inactive) in assay [9]; 2.15 µM (active) with Streptococcus; 3.24 µM (active) in assay [12]. Further, the values for the IC50 (at Exodeoxyribonuclease V; in assay [10]; in [11]) were > 119 µM (inactive), > 119 µM (inactive) and 15.1 µM (active), respectively. Further, the AC50 in assay [13] is 16.2 µM (active).

As usually defined, the IC50 is the point on the concentration scale where inhibition reaches its midpoint. The EC50 is the concentration at which the effect is half-maximal. Broadly, the AC50 is the midpoint of the concentration-response curve, whichever way the signal moves.
